According to publication PMC11526092 (2024):

Tested on: h1_(TTAA)2 (DNA, hairpin) CGTTAATTAACGCCCCCGTTAATTAACG
Assay: SPR, steady state, two-site fit
Conditions: Na+ 100 mM (NaCl), 1 mM EDTA; 10 mM MES pH 6.25, 0.005% P20, 25 °C; site 1 of 2; error about ±10%

## N=C(N)c1ccc(OCCCCCOc2ccc(C(=N)N)cc2)cc1
  K1: 680 nM
